{"source": "patent US12527739B2", "about": "(Alcon Inc., priority 2022, dated 2026)", "key": {"M3 muscarinic receptor": {"target": "M3 muscarinic receptor (Homo sapiens, UniProt P20309)", "sequence (P20309 whole entry)": "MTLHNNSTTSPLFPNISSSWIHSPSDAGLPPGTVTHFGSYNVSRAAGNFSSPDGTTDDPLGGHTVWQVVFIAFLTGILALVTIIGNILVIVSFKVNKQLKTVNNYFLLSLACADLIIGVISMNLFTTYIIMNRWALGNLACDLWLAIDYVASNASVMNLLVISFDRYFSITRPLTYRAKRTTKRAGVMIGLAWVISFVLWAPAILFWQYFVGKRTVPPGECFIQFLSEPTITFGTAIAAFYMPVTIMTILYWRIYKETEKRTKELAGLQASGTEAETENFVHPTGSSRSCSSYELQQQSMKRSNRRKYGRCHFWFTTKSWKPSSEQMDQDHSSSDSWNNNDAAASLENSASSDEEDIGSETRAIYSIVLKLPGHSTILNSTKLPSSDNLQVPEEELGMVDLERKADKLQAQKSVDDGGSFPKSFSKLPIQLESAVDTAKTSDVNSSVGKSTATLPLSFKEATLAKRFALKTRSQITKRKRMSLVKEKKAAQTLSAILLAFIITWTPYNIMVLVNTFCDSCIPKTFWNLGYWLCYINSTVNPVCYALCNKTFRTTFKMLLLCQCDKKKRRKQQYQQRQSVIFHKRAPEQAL", "experiment": "Muscarinic receptor radioligand displacement binding, M3"}, "[1]": {"experiment": "Concentration of benzyl atropine in freshly prepared simplified formulations", "format": "physicochemical", "text": "Considerable efforts were made to simplify the formulation to reduce the overall amount of surfactants (Table 11).\nThe combination of two different species of surfactant was unexpected. […] The efficacy of this “double-buffered” vehicle was unexpected."}, "M2 muscarinic receptor": {"target": "T1, M2 muscarinic receptor (Homo sapiens, UniProt P08172)", "T1 sequence (P08172 1-466)": "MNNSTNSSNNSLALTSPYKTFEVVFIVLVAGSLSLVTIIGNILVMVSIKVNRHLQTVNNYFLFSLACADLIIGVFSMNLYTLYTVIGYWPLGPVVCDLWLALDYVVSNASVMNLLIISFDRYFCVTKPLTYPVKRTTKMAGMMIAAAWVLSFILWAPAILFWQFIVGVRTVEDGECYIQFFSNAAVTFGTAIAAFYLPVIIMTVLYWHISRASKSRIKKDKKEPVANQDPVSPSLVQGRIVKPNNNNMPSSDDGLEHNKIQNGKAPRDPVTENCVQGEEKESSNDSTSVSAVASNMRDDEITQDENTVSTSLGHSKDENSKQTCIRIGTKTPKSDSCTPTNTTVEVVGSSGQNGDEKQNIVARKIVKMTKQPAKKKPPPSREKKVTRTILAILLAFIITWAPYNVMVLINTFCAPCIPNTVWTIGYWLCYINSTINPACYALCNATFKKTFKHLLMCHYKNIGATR", "experiment": "Muscarinic receptor radioligand displacement binding, M2"}, "[2]": {"details": "0.78% Sodium Chloride in 30 mM Acetate Buffer, pH 4.55"}, "[3]": {"details": "3.5% PEG-400, 0.46% Sodium Chloride in 30 mM Acetate Buffer, pH 4.62"}, "[4]": {"details": "3.5% PEG-400, 5.0% PEG-35 Castor Oil, 0.37% Sodium Chloride in 30 mM Acetate Buffer, pH 4.67"}, "[5]": {"details": "5.0% PEG-35 Castor Oil, 0.81% Sodium Chloride in 30 mM Acetate Buffer, pH 4.57"}, "[6]": {"details": "7.0% PEG-40 Stearate, 0.58% Sodium Chloride in 30 mM Acetate Buffer, pH 4.64"}, "[7]": {"details": "7.0% PEG-40 Stearate, 0.65% Sodium Chloride in 5 mM Phosphate Buffer/30 mM Acetate Buffer"}}}
{"smiles": "CN1C2CCC1CC(OC(=O)C(CO)(Cc1ccccc1)c1ccccc1)C2", "note": "(racemic) [Benzyl Atropine, benzyl atropine]", "values": [{"measurement": "binding to the receptor (in words)", "setting": "M3 muscarinic receptor", "result": "not to bind at all"}, {"measurement": "Actual Concentration", "setting": "[1]; [2]", "result": 0.92, "unit": "mg/g"}, {"measurement": "Final Osmolality", "setting": "[1]; [2]", "result": 263.5, "unit": "mOsm/kg"}, {"measurement": "Final pH", "setting": "[1]; [2]", "result": 7.2}, {"measurement": "Actual Concentration", "setting": "[1]; [3]", "result": 1.79, "unit": "mg/g"}, {"measurement": "Final Osmolality", "setting": "[1]; [3]", "result": 287, "unit": "mOsm/kg"}, {"measurement": "Final pH", "setting": "[1]; [3]", "result": 7.1}, {"measurement": "Actual Concentration", "setting": "[1]; [4]", "result": 3.95, "unit": "mg/g"}, {"measurement": "Final Osmolality", "setting": "[1]; [4]", "result": 293, "unit": "mOsm/kg"}, {"measurement": "Final pH", "setting": "[1]; [4]", "result": 7.4}, {"measurement": "Actual Concentration", "setting": "[1]; [5]", "result": 3.02, "unit": "mg/g"}, {"measurement": "Final Osmolality", "setting": "[1]; [5]", "result": 306.5, "unit": "mOsm/kg"}, {"measurement": "Final pH", "setting": "[1]; [5]", "result": 7.5}, {"measurement": "Actual Concentration", "setting": "[1]; [6]", "result": 4.62, "unit": "mg/g"}, {"measurement": "Final Osmolality", "setting": "[1]; [6]", "result": 264.5, "unit": "mOsm/kg"}, {"measurement": "Final pH", "setting": "[1]; [6]", "result": 7.4}, {"measurement": "Actual Concentration", "setting": "[1]; [7]", "result": 5.32, "unit": "mg/g"}, {"measurement": "Final Osmolality", "setting": "[1]; [7]", "result": 291, "unit": "mOsm/kg"}, {"measurement": "Final pH", "setting": "[1]; [7]", "result": 6.4}, {"measurement": "highest achievable concentration that did not re-precipitate", "setting": "[1]; in the presence of 3.5% PEG-400, 5% PEG-35 castor oil, and 0.37% NaCl", "result": 3.9, "unit": "mg/g"}, {"measurement": "binding to the receptor (in words)", "setting": "M2 muscarinic receptor", "result": "not to bind at all"}]}
